Common to all, as to conditions: in vivo
Series [1] concerns Rattus norvegicus. As to the kind of experiment: Concentration accumulated in thyroid at 24 hr r after intravenous administration in rat. It counts as ADME, organism-based, Thyroid gland.
Series [2] concerns Rattus norvegicus. As to the kind of experiment: Concentration accumulated in blood at 24 hr r after intravenous administration in rat. In kind it is ADME, organism-based.
The test system of series [3] is Rattus norvegicus. As to the kind of experiment: Concentration accumulated in ovary at 0.5 hr after intravenous administration in rat. In kind it is ADME, organism-based, Female gonad.
Series [4] concerns Rattus norvegicus. As to the kind of experiment: Concentration accumulated in blood at 0.5 hr after intravenous administration in rat. In kind it is ADME, organism-based.
The test system of series [5] is Rattus norvegicus. As to the kind of experiment: Concentration accumulated in adrenal cortex at 24 hr r after intravenous administration in rat. In kind it is ADME, organism-based.
Series [6] relates to Rattus norvegicus. The series is described as follows: Concentration accumulated in liver at 0.5 hr after intravenous administration in rat. It counts as ADME, organism-based.
Series [7] has as its system Rattus norvegicus. The series is described as follows: Concentration accumulated in liver at 24 hr r after intravenous administration in rat. It counts as ADME, organism-based.
Series [8] concerns Rattus norvegicus. The series is described as follows: Concentration accumulated in kidney at 24 hr r after intravenous administration in rat. It counts as ADME, organism-based.
In series [9] the test system is Rattus norvegicus. As to the kind of experiment: Concentration accumulated in thyroid at 0.5 hr after intravenous administration in rat. It counts as ADME, organism-based, Thyroid gland.
Series [10] has as its system Rattus norvegicus. As to the kind of experiment: Concentration accumulated in ovary at 24 hr r after intravenous administration in rat. It counts as ADME, organism-based, Female gonad.
Series [11] relates to Rattus norvegicus. As to the kind of experiment: Concentration accumulated in kidney at 0.5 hr after intravenous administration in rat. In kind it is ADME, organism-based.
The test system of series [12] is Rattus norvegicus. The series is described as follows: Concentration accumulated in adrenal cortex at 0.5 hr after intravenous administration in rat. In kind it is ADME, organism-based.

Structures are written as SMILES.

`C[C@H](OC(=O)c1ccccc1I)C1CCC2C3CC=C4CC(O)CCC4(C)C3CCC21C` (stereo not given in full): the Dose/g is 511.17% in the series on Rattus norvegicus [1]; 0.05% in the series with Rattus norvegicus [2]; 1.49% in the series on Rattus norvegicus [3]; 0.59% in the series on Rattus norvegicus [4]; 0.31% in the series with Rattus norvegicus [5]; 3.92% with Rattus norvegicus [6]. Moreover, the Dose/g in the series with Rattus norvegicus [7] is 0.2%; with Rattus norvegicus [8] it was 0.11%; with Rattus norvegicus [9] it was 4.96%; in the series on Rattus norvegicus [10], 0.26%; with Rattus norvegicus [11] it was 1.29%; with Rattus norvegicus [12], 10.04%.

On to `C[C@H](NC(=O)c1ccccc1I)C1CCC2C3CC=C4CC(O)CCC4(C)C3CCC21C` (stereo not given in full), for which the Dose/g in the series with Rattus norvegicus [1] is 51.14%; in the series with Rattus norvegicus [2] it was under 0.01%; with Rattus norvegicus [3], 0.58%; in the series on Rattus norvegicus [4] it was 0.1%; in the series on Rattus norvegicus [5], 0.1%; with Rattus norvegicus [6] it was 3.85%. Further, the Dose/g is given as 0.06% in the series on Rattus norvegicus [7]; 0.01% in the series with Rattus norvegicus [8]; 2.2% with Rattus norvegicus [9]; 0.09% in the series on Rattus norvegicus [10]; 0.41% in the series on Rattus norvegicus [11]; 2.49% with Rattus norvegicus [12].

Consider `C[C@@H](OC(=O)c1ccccc1I)C1CCC2C3CC=C4CC(O)CCC4(C)C3CCC21C` (stereo not given in full), for which the Dose/g in the series on Rattus norvegicus [1] was determined as 52.36%; with Rattus norvegicus [2], 0.02%; with Rattus norvegicus [3], 1.67%; in the series with Rattus norvegicus [4] it was 0.25%; in the series on Rattus norvegicus [5] it was 1.23%; in the series with Rattus norvegicus [6], 6.04%. The Dose/g in the series with Rattus norvegicus [7] came out at 0.11%; in the series on Rattus norvegicus [8] it was 0.05%; in the series on Rattus norvegicus [9], 2.93%; with Rattus norvegicus [10], 0.26%; with Rattus norvegicus [11] it was 1.59%; in the series on Rattus norvegicus [12], 6.83%.

For `C[C@@H](NC(=O)c1ccccc1I)C1CCC2C3CC=C4CC(O)CCC4(C)C3CCC21C` (stereo not given in full), the Dose/g is recorded as 24.65% with Rattus norvegicus [1]; under 0.01% with Rattus norvegicus [2]; 0.53% in the series with Rattus norvegicus [3]; 0.08% in the series with Rattus norvegicus [4]; 0.55% in the series on Rattus norvegicus [5]; 1.28% with Rattus norvegicus [6]. The Dose/g stood at 0.22% in the series with Rattus norvegicus [7]; 0.02% in the series with Rattus norvegicus [8]; 1.4% in the series with Rattus norvegicus [9]; 0.07% in the series with Rattus norvegicus [10]; 0.47% in the series on Rattus norvegicus [11]; 1.66% with Rattus norvegicus [12].

`CC(C)CCCC(C)C1CCC2C3CC(CI)C4=C(CCC(O)C4)C3CCC12C` (stereo not given): the Dose/g in the series on Rattus norvegicus [1] is 111.3%; in the series on Rattus norvegicus [2], 0.87%; with Rattus norvegicus [3], 4.1%; in the series on Rattus norvegicus [4], 2.35%; in the series with Rattus norvegicus [5] it was 116.21%; in the series with Rattus norvegicus [6] it was 4.57%. Further, the Dose/g with Rattus norvegicus [7] is 1.34%; with Rattus norvegicus [8] it was 0.76%; in the series with Rattus norvegicus [9], 1.37%; in the series on Rattus norvegicus [10], 33.1%; in the series with Rattus norvegicus [11] it was 0.45%; with Rattus norvegicus [12] it was 17.89%.

For the origin of these results see ChEMBL document CHEMBL1124419, “Potential tumor- or organ-imaging agents. 29. Radioiodinated esters and amides of 20-hydroxy- and 20-aminopregn-5-en-3 beta-ols” (J Med Chem, 1989).
